Results reported in PMC12136037, “Type II kinase inhibitors that target Parkinson’s disease–associated LRRK2” (Science Advances, 2025).

Legend:
Test in all cases: DSF 100 kinase selectivity screen;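 further: compound tested at 20 µM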
Assay type in all cases: binding
[1] = biological target: T1, ~100 representative kinases (Homo sapiens, UniProt O15264); conditions: protein MAPK13; average of three replicates
T1 construct: Recombinant protein kinase domains with a concentration of 2 μM
T1 sequence (O15264 1-365): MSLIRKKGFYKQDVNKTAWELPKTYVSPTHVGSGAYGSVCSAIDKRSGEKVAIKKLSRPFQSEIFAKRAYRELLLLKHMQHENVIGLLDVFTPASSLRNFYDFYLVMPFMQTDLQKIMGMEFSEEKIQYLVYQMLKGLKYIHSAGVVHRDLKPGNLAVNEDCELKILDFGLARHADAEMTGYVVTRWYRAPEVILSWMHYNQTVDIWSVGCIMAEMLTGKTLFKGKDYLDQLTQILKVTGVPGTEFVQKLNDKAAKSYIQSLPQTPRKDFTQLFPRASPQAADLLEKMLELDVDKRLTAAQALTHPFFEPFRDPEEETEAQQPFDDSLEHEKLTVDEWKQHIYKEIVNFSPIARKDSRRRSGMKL
Summary of the method: (§1)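 Each kinase domain, at 2 μM, is mixed with 20 μM test compound and SYPRO Orange in Hepes (20 mM, pH 7.5) with 500 mM NaCl. Temperature is then raised at 3°C/min and fluorescence-monitored unfolding yields the melting temperature change, ΔTm in degrees Celsius.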

[2] = biological target: T2, ~100 representative kinases (Homo sapiens, UniProt O95747); conditions: protein OSR1; average of three replicates
T2 construct: Recombinant protein kinase domains with a concentration of 2 μM
Summary of the method: as §1

[3] = biological target: T3, ~100 representative kinases (Homo sapiens, UniProt P07332); conditions: protein FESA; average of three replicates
T3 construct: Recombinant protein kinase domains with a concentration of 2 μM
Summary of the method: as §1

[4] = biological target: T4, ~100 representative kinases (Homo sapiens, UniProt P12931); conditions: Protein SRC; DSF; average of three replicates
T4 construct: Recombinant protein kinase domains with a concentration of 2 μM
Summary of the method: as §1

[5] = biological target: T5, ~100 representative kinases (Homo sapiens, UniProt P19784); conditions: Protein CK2A2; average of three replicates
T5 construct: Recombinant protein kinase domains with a concentration of 2 μM
Summary of the method: as §1

[6] = biological target: T6, ~100 representative kinases (Homo sapiens, UniProt P21675); conditions: Protein TAF1; DSF; average of three replicates
T6 construct: Recombinant protein kinase domains with a concentration of 2 μM
Summary of the method: as §1

[7] = biological target: T7, ~100 representative kinases (Homo sapiens, UniProt P21802); conditions: protein FGFR2; average of three replicates
T7 construct: Recombinant protein kinase domains with a concentration of 2 μM
Summary of the method: as §1

[8] = biological target: T8, ~100 representative kinases (Homo sapiens, UniProt P33981); conditions: Protein TTK; DSF; average of three replicates
T8 construct: Recombinant protein kinase domains with a concentration of 2 μM
T8 sequence (P33981 1-857): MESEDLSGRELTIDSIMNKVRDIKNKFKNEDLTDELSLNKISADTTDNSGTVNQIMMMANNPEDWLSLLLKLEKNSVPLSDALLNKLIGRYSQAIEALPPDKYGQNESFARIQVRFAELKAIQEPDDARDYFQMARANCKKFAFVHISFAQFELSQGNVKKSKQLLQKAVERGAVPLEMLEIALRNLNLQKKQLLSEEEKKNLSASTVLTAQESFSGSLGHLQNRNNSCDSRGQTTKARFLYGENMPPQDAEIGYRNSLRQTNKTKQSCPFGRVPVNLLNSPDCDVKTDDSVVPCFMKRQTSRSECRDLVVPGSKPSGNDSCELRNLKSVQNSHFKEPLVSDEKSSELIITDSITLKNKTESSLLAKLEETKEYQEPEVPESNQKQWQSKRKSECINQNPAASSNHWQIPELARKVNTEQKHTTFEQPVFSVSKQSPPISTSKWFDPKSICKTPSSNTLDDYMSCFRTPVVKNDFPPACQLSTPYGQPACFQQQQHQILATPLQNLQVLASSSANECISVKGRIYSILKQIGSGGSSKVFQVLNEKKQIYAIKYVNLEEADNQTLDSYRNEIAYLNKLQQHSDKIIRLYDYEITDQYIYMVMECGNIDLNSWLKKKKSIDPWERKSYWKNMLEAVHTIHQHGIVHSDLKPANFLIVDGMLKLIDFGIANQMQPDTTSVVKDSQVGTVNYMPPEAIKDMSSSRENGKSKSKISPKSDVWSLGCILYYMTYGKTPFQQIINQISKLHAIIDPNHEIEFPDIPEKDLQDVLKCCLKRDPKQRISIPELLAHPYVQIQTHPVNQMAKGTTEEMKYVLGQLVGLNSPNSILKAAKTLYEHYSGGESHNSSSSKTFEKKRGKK
Summary of the method: as §1

[9] = biological target: T9, ~100 representative kinases (Homo sapiens, UniProt P45984); conditions: protein MAPK9; average of three replicates
T9 construct: Recombinant protein kinase domains with a concentration of 2 μM
Summary of the method: as §1

[10] = biological target: T10, ~100 representative kinases (Homo sapiens, UniProt P54764); conditions: Protein EPHA4; average of three replicates
T10 construct: Recombinant protein kinase domains with a concentration of 2 μM
Summary of the method: as §1

[11] = biological target: T11, ~100 representative kinases (Homo sapiens, UniProt Q13554); conditions: Protein CAMK2B; average of three replicates
T11 construct: Recombinant protein kinase domains with a concentration of 2 μM
Summary of the method: as §1

T6 sequence (P21675 whole entry, the tested form may be a part): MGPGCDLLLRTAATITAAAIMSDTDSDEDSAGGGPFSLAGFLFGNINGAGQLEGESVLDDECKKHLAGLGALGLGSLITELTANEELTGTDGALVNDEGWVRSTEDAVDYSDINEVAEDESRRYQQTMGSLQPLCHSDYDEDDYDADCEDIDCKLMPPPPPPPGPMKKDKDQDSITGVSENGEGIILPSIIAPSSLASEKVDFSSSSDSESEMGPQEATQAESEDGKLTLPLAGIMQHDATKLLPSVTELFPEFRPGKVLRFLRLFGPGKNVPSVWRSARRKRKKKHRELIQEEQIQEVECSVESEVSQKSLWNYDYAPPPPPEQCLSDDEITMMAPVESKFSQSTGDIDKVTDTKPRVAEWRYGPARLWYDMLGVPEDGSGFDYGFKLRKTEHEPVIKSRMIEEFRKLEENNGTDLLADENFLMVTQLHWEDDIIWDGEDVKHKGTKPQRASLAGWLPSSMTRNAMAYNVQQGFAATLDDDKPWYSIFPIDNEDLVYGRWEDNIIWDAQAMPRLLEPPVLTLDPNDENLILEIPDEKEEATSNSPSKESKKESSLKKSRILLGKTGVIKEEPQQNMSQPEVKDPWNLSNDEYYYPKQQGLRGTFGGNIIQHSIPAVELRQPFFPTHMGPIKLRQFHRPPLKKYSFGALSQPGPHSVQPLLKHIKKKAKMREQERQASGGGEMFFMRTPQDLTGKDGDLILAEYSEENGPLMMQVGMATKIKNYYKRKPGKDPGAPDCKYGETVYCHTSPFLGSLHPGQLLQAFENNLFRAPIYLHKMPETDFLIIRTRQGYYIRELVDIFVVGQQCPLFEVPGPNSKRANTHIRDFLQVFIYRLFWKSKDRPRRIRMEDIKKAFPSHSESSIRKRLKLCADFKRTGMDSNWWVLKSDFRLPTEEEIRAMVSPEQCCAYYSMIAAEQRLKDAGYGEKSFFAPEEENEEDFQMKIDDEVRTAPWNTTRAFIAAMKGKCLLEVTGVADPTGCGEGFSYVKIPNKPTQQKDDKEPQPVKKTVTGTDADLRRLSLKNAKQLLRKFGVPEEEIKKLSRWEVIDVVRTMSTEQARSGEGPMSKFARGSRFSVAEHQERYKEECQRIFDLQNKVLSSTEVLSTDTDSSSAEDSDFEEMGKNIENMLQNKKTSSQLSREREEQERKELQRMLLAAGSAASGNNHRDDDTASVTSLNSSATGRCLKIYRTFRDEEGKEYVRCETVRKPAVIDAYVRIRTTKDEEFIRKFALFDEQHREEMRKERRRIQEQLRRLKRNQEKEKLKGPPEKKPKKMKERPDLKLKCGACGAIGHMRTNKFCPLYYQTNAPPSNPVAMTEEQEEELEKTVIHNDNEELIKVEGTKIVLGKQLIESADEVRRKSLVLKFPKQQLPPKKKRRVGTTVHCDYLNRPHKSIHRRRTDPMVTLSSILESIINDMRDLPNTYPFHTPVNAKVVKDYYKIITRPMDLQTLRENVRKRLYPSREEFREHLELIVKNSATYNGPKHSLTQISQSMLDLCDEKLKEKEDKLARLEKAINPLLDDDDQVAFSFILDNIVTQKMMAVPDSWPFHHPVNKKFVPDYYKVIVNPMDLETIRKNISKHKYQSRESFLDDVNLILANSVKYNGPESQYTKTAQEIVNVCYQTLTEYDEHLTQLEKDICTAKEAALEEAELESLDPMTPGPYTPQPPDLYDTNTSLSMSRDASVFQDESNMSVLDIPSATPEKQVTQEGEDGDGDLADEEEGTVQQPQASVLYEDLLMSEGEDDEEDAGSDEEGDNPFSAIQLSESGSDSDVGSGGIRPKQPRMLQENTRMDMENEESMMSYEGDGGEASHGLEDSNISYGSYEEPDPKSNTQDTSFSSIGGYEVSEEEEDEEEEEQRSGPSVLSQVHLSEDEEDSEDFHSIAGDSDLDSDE
T7 sequence (P21802 22-821): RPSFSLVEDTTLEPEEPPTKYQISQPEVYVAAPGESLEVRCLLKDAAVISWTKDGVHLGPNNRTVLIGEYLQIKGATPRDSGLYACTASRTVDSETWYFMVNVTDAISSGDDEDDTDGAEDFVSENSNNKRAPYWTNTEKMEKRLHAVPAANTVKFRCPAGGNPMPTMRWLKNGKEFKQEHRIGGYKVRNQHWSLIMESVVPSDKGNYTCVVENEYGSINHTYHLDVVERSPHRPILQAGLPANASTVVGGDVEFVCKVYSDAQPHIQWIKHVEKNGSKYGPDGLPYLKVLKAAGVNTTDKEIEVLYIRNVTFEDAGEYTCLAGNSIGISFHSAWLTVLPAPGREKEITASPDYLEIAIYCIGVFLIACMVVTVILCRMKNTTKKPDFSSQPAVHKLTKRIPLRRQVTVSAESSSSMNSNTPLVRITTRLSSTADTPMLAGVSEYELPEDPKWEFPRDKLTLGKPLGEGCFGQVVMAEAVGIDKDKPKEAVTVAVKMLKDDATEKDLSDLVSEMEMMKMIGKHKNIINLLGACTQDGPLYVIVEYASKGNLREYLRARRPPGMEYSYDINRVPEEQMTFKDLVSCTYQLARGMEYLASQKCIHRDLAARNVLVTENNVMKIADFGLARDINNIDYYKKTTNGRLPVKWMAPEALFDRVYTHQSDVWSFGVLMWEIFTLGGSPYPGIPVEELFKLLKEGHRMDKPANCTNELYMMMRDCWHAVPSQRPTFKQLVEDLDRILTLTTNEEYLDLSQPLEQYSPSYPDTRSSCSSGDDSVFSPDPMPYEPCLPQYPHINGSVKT
T4 sequence (P12931 whole entry, the tested form may be a part): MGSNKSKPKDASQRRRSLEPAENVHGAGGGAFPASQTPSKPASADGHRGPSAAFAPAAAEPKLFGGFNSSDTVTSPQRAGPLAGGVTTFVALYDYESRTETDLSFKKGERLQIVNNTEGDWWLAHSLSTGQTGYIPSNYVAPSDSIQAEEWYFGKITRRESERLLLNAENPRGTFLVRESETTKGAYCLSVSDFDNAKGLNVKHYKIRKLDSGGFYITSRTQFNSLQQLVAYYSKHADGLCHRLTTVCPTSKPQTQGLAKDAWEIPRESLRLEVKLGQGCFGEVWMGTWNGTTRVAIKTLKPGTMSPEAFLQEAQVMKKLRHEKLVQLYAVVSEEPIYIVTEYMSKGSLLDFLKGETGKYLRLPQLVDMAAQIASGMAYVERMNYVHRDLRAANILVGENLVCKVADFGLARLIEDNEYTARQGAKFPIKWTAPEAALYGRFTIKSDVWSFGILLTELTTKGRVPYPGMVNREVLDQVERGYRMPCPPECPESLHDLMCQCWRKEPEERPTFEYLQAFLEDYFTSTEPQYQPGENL
T10 sequence (P54764 20-986): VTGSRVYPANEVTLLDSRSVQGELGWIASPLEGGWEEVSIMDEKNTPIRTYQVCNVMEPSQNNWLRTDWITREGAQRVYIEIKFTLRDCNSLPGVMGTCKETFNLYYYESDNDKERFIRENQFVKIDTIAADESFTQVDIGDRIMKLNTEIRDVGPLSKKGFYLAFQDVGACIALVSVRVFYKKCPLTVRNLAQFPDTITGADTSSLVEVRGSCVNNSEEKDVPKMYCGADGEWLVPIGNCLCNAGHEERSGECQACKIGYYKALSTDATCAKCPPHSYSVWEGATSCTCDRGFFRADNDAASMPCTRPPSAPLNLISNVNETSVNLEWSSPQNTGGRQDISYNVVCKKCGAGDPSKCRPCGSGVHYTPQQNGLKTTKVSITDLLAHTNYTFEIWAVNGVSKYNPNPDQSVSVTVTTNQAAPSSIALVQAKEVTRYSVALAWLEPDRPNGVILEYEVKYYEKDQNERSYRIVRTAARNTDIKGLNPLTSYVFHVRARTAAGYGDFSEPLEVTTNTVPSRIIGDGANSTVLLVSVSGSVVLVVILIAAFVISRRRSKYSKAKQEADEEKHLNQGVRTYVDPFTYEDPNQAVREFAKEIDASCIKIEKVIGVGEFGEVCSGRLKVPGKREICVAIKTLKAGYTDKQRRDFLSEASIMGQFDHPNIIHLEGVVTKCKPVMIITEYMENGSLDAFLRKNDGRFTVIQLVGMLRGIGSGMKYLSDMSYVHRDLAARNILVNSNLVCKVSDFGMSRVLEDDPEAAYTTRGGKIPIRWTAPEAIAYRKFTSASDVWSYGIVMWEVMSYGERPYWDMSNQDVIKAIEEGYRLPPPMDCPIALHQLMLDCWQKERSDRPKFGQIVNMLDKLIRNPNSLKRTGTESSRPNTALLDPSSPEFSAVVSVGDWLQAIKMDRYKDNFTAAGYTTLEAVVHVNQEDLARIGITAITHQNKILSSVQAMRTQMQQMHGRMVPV
T9 sequence (P45984 whole entry, the tested form may be a part): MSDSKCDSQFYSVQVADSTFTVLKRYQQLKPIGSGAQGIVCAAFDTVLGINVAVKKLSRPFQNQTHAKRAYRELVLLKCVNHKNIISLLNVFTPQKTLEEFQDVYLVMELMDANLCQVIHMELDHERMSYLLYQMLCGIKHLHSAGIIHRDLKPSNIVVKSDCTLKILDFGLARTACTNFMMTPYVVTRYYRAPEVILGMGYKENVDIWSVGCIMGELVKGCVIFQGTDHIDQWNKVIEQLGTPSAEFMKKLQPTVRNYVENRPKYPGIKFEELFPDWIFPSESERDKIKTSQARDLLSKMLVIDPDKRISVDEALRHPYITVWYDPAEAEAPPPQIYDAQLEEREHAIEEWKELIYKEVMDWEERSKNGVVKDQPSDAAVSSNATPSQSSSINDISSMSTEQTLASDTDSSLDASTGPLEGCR
T5 sequence (P19784 whole entry, the tested form may be a part): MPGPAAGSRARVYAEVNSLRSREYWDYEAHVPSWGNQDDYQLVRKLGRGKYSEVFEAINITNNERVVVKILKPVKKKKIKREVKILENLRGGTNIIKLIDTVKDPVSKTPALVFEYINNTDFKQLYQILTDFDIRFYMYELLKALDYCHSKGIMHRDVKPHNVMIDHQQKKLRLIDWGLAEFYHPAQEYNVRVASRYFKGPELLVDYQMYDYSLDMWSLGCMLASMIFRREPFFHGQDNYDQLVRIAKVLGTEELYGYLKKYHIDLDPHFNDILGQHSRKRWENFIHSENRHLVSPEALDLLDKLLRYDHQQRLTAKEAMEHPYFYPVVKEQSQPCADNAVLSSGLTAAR

Row | SMILES | dTm [1] [K] | dTm [2] [K] | dTm [3] [K] | dTm [4] [K] | dTm [5] [K] | dTm [6] [K] | dTm [7] [K] | dTm [8] [K] | dTm [9] [K] | dTm [10] [K] | dTm [11] [K]
1 | CC(=O)N1CCN(c2nc(Cl)nc3[nH]cc(-c4cccc(NC(=O)Nc5cc(C(C)(C)C)nn5-c5ccc(C)cc5)c4)c23)CC1 [Compound 31] | 11.86 | -2.10 | 0.00 | 0.41 | -3.51 | -2.02 | -0.09 | 1.71 | 5.47 | 2.58 | -1.59
2 | Cc1ccc(C(=O)Nc2ccc(CN3CCN(C)CC3)c(C(F)(F)F)c2)cc1C#Cc1cnc2cccnn12 [Ponatinib, reference compound] |  |  |  | 1.53 |  | -0.60 | 12.49 |  |  |  | 
3 | Cn1cc(-c2c[nH]c3ncnc(N4CCOCC4)c23)cc1C#N [PFE-360] | 0.70 | -0.14 | 0.78 | -0.08 | 0.26 | -0.43 | 0.89 | 0.43 | 0.17 | 0.0126 | 0.00751
4 | COc1cc2c(Oc3ccc(NC(=O)C4(C(=O)Nc5ccc(F)cc5)CC4)cc3F)ccnc2cc1OCCCN1CCOCC1 [Foretinib, reference compound] | 9.64 | -0.48 | 6.46 | 8.21 | 0.00 | 0.54 | 7.20 | 2.21 | 2.84 | 11.16 | 0.83
5 | Cc1ccc(C(=O)Nc2ccc(CN3CCN(C)CC3)c(C(F)(F)F)c2)cc1C#Cc1cnc2[nH]ncc2c1 [GZD-824, reference compound] | 6.08 | 0.93 |  | 2.45 | 1.79 | -0.68 | 13.32 | 4.08 | 4.93 | 15.22 | 0.11
6 | CCNc1nc(Nc2cc(F)c(C(=O)N3CCOCC3)cc2OC)ncc1C(F)(F)F [GNE-7915] | 0.51 | 0.21 | 2.48 | -0.11 | 2.65 | -0.58 | 0.49 | 6.53 | 0.58 | 0.0738 | 0.10
7 | CN[C@@H]1C[C@H]2O[C@@](C)([C@@H]1OC)n1c3ccccc3c3c4c(c5c6ccccc6n2c5c31)C(=O)NC4 [Staurosporine] | 8.03 | 8.41 |  |  |  | 0.52 |  |  |  | 6.68 | 

Continued, values first:

Row | dTm [1] [K] | dTm [2] [K] | dTm [3] [K] | dTm [4] [K] | dTm [5] [K] | dTm [6] [K] | dTm [7] [K] | dTm [8] [K] | dTm [9] [K] | dTm [10] [K] | dTm [11] [K] | SMILES
8 | 7.48 | 1.41 | 4.70 | 0.45 | 1.02 | 0.59 | 2.08 | -5.86 | 2.02 | 1.15 | 0.18 | O=C(Nc1cccc(-c2c[nH]c3ncnc(N4CCOCC4)c23)c1)C1(C(=O)Nc2ccc(F)cc2F)CC1 [Compound 23]
9 | 13.05 | 1.31 | 7.60 | 1.91 | 1.33 | 0.99 | 4.17 | 8.62 | 6.61 | 3.23 | 1.78 | Cc1cc(NC(=O)C2(C(=O)Nc3cccc(-c4c[nH]c5ncnc(N6CCOCC6)c45)c3)CC2)ccc1F [Compound 20]
10 | 7.75 | -0.63 | 4.17 | 0.20 | 2.54 | 0.30 | 1.97 | 5.72 | 2.51 | 2.49 | 1.87 | Cc1cc(NC(=O)C2(C(=O)Nc3ccc(F)cc3)CC2)cc(-c2c[nH]c3ncnc(N4CCOCC4)c23)c1 [Compound 6]
11 | 7.89 | 1.28 | 6.39 | 1.12 | 7.05 | -0.82 | 2.56 | 7.12 | 2.81 | 1.72 | 0.82 | O=C(Nc1ccccc1)C1(C(=O)Nc2cccc(-c3c[nH]c4ncnc(N5CCOCC5)c34)c2)CC1 [Compound 12]
12 | 11.96 | 1.49 | 6.49 | -0.25 | 7.91 | 0.00 | 4.16 | 9.93 | 5.82 | 1.78 | 2.00 | O=C(Nc1cccc(-c2c[nH]c3ncnc(N4CCOCC4)c23)c1)C1(C(=O)Nc2ccc(F)c(Br)c2)CC1 [Compound 19]
13 | 9.71 | -1.12 | 3.55 | 0.05 | -4.20 | -4.89 | -0.31 | 2.15 | 3.39 | 1.07 | -1.25 | Cc1ccc(-n2nc(C(C)(C)C)cc2NC(=O)Nc2cccc(-c3c[nH]c4nc(Cl)nc(N5CCOCC5)c34)c2)cc1 [Compound 30]
14 | 16.99 | 4.85 | 9.54 | 7.10 | -0.38 | 1.17 | 10.62 | 7.28 | 6.00 | 8.59 | 1.84 | CC(C)(C)c1cc(NC(=O)Nc2cccc(-c3c[nH]c4ncnc(N5CCOCC5)c34)c2)n(-c2ccc3ncccc3c2)n1 [Compound 28]
15 | 6.18 | 0.42 | 4.12 | 2.66 | 1.05 | -5.02 | 2.75 | 6.04 | 4.16 | 0.40 | 1.38 | O=C(Nc1cccc(-c2c[nH]c3ncnc(N4CCOCC4)c23)c1)C1(C(=O)Nc2cccc3c2CCC3)CC1 [Compound 11]
16 | 12.04 | 0.31 | 6.93 | 1.18 | 1.36 | 1.40 | 4.02 | 8.02 | 5.44 | 1.94 | 2.15 | O=C(Nc1cccc(-c2c[nH]c3ncnc(N4CCOCC4)c23)c1)C1(C(=O)Nc2ccc(F)c(Cl)c2)CC1 [Compound 18]
